In patent US11208412B2 (DAEGU-GYEONGBUK MEDICAL INNOVATION FOUNDATION, priority 2017, dated 2021):

What was measured:
Experiment in all cases: Kinase selectivity, DiscoverX scanMAX Kinase assay panel (% control)
Format in all cases: binding
[1] = biological target: T1, kinases of the scanMAX Kinase assay panel (Homo sapiens, UniProt O75460); settings: ERN1; 1 uM
T1 construct: purchased DiscoverX Co. (contract measurement) scanMAX Kinase assay panel
Procedure, shortened: (§1)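 A 1 uM DMSO solution of compound was applied across the panel kinases, and results were expressed as % control relative to DMSO (100%) and a positive control (0%).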

[2] = biological target: T2, kinases of the scanMAX Kinase assay panel (Homo sapiens, UniProt P11362); settings: FGFR1; 1 uM
T2 construct: purchased DiscoverX Co. (contract measurement) scanMAX Kinase assay panel
T2 sequence (P11362 22-822): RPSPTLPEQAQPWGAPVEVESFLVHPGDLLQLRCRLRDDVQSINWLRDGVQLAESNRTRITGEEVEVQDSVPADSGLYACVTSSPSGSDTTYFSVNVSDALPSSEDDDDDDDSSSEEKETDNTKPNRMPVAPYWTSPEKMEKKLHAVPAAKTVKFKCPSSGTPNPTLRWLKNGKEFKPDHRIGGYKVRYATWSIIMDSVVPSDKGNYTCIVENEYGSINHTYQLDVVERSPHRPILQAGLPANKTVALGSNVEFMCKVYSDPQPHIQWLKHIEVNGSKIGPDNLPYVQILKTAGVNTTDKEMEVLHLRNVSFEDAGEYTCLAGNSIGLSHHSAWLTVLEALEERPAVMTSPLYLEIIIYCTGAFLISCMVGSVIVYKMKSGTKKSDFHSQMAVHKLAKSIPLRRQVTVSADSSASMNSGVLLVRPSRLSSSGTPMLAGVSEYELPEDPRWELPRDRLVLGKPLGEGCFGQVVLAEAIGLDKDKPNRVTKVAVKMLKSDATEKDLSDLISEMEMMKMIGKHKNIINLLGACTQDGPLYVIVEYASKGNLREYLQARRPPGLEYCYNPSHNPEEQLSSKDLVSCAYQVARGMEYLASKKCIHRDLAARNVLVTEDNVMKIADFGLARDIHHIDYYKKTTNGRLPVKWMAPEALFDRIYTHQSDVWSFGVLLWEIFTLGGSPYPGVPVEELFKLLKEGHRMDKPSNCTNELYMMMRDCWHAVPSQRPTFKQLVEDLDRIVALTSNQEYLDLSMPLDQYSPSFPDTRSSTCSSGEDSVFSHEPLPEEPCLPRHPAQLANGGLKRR
Procedure, shortened: as §1

[3] = biological target: T3, kinases of the scanMAX Kinase assay panel (Homo sapiens, UniProt P16591); settings: FER; 1 uM
T3 construct: purchased DiscoverX Co. (contract measurement) scanMAX Kinase assay panel
T3 sequence (P16591 whole entry): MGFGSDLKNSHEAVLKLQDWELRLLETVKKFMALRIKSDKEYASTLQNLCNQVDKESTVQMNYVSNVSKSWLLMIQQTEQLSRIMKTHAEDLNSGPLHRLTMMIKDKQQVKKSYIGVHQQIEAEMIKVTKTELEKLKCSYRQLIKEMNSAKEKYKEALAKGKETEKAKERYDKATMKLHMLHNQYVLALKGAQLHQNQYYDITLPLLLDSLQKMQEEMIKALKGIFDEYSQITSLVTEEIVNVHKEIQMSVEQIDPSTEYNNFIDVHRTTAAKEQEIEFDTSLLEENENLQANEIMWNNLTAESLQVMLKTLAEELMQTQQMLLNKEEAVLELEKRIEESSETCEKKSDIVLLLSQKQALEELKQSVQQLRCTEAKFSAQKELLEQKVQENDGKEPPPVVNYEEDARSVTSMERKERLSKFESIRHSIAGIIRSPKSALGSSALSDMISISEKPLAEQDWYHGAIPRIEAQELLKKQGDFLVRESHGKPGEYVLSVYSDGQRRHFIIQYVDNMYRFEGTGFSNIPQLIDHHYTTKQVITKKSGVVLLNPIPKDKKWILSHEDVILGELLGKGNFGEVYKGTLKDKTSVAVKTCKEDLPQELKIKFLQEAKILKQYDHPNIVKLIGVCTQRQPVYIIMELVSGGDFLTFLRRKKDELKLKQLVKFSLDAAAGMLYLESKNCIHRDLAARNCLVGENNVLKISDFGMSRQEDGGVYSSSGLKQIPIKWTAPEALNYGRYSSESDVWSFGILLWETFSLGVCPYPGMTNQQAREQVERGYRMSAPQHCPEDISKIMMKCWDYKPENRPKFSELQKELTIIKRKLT
Procedure, shortened: as §1

[4] = biological target: T4, kinases of the scanMAX Kinase assay panel (Homo sapiens, UniProt P21802); settings: FGFR2; 1 uM
T4 construct: purchased DiscoverX Co. (contract measurement) scanMAX Kinase assay panel
T4 sequence (P21802 22-821): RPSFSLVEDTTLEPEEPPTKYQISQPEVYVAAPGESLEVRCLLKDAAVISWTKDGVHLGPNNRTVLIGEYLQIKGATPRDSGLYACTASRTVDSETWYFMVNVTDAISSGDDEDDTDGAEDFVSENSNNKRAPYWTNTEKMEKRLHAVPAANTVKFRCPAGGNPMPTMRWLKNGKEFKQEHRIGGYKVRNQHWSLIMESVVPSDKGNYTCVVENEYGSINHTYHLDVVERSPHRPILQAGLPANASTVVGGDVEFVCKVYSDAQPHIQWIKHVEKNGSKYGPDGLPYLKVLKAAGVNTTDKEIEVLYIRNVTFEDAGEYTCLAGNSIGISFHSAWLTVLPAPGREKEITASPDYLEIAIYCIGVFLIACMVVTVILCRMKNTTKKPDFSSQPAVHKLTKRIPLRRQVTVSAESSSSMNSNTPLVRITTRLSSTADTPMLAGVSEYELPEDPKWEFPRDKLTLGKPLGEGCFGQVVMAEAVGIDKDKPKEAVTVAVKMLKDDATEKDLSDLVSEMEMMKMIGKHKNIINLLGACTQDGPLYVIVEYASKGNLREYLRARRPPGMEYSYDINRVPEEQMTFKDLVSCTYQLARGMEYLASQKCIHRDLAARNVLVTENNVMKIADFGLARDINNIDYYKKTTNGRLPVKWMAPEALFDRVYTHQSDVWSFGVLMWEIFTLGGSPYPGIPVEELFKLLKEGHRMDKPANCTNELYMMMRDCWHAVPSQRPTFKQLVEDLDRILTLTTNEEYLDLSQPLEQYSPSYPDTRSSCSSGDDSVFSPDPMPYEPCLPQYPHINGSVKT
Procedure, shortened: as §1

[5] = biological target: T5, kinases of the scanMAX Kinase assay panel (Homo sapiens, UniProt P42336, H1047Y); settings: PIK3CA(H1047Y); 1 uM
T5 construct: purchased DiscoverX Co. (contract measurement) scanMAX Kinase assay panel
T5 sequence (P42336 whole entry H1047Y): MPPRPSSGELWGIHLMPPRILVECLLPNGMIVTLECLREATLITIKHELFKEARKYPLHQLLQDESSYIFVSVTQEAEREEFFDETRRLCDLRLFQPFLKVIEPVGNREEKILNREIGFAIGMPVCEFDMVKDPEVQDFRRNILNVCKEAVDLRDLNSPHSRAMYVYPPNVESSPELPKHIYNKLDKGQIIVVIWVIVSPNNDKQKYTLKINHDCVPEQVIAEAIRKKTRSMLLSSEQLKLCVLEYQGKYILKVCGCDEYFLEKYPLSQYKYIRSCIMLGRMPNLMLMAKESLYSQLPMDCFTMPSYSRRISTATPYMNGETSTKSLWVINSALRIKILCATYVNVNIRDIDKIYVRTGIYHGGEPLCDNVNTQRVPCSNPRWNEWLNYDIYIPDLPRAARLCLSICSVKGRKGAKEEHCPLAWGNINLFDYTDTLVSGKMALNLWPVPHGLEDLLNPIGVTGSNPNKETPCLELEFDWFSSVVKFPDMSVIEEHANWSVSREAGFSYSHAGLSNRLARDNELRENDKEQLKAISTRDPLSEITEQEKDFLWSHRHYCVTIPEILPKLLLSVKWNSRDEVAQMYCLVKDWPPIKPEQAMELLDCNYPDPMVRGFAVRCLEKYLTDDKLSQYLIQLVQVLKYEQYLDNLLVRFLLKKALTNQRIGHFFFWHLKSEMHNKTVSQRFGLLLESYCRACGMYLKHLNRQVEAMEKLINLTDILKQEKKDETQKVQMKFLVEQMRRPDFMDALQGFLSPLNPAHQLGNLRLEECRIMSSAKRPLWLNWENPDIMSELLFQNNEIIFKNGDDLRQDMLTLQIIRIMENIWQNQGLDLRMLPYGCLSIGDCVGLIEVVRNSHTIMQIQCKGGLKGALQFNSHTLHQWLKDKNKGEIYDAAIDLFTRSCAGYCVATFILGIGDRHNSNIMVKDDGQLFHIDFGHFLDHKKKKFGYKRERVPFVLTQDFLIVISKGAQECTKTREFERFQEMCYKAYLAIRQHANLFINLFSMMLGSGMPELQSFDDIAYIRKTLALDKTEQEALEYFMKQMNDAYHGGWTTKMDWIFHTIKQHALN
Procedure, shortened: as §1

[6] = biological target: T6, kinases of the scanMAX Kinase assay panel (Homo sapiens, UniProt P46734); settings: MEK3; 1 uM
T6 construct: purchased DiscoverX Co. (contract measurement) scanMAX Kinase assay panel
T6 sequence (P46734 1-347): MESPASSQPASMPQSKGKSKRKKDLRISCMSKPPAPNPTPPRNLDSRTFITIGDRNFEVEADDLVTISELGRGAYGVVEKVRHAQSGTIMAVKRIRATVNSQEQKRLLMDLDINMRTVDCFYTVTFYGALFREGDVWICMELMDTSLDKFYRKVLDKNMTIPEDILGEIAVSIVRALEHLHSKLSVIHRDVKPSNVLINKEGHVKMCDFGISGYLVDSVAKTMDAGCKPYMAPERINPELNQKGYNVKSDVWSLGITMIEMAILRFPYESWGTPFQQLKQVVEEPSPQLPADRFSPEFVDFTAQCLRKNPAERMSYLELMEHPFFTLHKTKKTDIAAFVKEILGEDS
Procedure, shortened: as §1

[7] = biological target: T7, kinases of the scanMAX Kinase assay panel (Homo sapiens, UniProt P57078); settings: kinase RIPK4; 1 uM in DMSO
T7 construct: purchased DiscoverX Co. (contract measurement) scanMAX Kinase assay panel
T7 sequence (P57078 1-832): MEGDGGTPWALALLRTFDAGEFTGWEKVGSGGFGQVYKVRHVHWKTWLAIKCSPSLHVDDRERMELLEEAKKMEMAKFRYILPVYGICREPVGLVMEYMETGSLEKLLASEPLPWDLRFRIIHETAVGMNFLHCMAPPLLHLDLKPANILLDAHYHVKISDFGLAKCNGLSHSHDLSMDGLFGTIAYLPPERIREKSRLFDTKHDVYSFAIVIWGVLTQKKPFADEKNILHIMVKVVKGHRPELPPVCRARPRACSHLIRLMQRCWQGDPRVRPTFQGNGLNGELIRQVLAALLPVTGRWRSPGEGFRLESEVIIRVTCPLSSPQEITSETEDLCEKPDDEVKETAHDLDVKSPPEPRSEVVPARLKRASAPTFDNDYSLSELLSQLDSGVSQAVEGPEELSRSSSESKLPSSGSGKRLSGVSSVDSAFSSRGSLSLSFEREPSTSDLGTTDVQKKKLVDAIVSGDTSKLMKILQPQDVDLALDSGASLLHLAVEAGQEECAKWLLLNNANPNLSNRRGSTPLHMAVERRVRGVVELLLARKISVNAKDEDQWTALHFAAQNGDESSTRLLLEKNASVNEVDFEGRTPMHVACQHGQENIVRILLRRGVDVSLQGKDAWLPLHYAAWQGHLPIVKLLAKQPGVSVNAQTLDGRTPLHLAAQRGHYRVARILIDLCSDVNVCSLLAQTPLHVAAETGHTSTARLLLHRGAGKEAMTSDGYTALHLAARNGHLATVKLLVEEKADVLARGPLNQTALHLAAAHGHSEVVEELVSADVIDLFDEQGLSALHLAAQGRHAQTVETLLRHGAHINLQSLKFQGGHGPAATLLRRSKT
Procedure, shortened: as §1

[8] = biological target: T8, kinases of the scanMAX Kinase assay panel (Homo sapiens, UniProt Q13523); settings: PRP4; 1 uM
T8 construct: purchased DiscoverX Co. (contract measurement) scanMAX Kinase assay panel
Procedure, shortened: as §1

[9] = biological target: T9, kinases of the scanMAX Kinase assay panel (Homo sapiens, UniProt Q8IY84); settings: NIM1; 1 uM
T9 construct: purchased DiscoverX Co. (contract measurement) scanMAX Kinase assay panel
Procedure, shortened: as §1

[10] = biological target: T10, kinases of the scanMAX Kinase assay panel (Homo sapiens, UniProt Q96NX5); settings: CAMK1G; 1 uM
T10 construct: purchased DiscoverX Co. (contract measurement) scanMAX Kinase assay panel
Procedure, shortened: as §1

[11] = biological target: T11, kinases of the scanMAX Kinase assay panel (Homo sapiens, UniProt Q9H422); settings: HIPK3; 1 uM
T11 construct: purchased DiscoverX Co. (contract measurement) scanMAX Kinase assay panel
Procedure, shortened: as §1

[12] = biological target: T12, kinases of the scanMAX Kinase assay panel (Plasmodium falciparum, UniProt P62344); settings: PFCDPK1(P. falciparum); 1 uM
T12 construct: purchased DiscoverX Co. (contract measurement) scanMAX Kinase assay panel
T12 sequence (P62344 whole entry): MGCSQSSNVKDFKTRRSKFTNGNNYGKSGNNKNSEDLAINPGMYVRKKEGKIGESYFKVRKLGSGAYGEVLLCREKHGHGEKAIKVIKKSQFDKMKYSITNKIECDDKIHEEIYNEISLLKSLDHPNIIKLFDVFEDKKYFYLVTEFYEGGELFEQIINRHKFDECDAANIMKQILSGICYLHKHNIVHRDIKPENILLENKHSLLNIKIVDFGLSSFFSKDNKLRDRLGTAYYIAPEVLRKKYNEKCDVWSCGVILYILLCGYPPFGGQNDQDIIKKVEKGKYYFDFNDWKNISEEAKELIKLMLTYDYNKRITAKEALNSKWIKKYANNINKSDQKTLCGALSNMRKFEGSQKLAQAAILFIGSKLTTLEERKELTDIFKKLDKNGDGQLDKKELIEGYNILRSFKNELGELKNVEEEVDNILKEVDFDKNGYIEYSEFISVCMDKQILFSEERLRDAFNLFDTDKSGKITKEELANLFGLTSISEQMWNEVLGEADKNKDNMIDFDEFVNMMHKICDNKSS
Procedure, shortened: as §1

T1 sequence (O75460 19-977): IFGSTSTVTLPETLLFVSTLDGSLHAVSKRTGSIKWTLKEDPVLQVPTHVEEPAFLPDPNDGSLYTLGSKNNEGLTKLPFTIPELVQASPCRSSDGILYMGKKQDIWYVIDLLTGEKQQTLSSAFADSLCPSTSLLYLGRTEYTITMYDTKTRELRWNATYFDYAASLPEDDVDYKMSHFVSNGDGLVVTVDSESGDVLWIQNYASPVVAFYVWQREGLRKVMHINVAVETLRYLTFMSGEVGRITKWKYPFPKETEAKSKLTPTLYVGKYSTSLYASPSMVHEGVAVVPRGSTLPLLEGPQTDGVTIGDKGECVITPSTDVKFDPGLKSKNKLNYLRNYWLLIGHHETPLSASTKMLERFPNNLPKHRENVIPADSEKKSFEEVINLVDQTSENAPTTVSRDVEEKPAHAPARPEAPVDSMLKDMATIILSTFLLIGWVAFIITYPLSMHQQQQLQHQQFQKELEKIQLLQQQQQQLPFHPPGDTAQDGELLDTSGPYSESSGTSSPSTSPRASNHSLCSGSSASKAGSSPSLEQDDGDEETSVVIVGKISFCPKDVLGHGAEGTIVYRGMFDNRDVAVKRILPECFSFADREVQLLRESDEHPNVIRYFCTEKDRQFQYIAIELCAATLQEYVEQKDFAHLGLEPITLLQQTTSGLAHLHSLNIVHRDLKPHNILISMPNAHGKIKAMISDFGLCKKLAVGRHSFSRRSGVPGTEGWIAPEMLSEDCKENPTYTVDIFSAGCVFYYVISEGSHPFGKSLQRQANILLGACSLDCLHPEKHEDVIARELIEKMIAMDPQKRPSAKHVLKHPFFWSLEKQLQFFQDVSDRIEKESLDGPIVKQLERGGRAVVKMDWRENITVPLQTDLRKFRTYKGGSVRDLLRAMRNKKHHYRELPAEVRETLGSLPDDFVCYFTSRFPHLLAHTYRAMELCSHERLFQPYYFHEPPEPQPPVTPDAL

| SMILES | remaining binding at 1 µM [1] [%] | remaining binding at 1 µM [2] [%] | remaining binding at 1 µM [3] [%] | remaining binding at 1 µM [4] [%] | remaining binding at 1 µM [5] [%] | remaining binding at 1 µM [6] [%] | remaining binding at 1 µM [7] [%] | remaining binding at 1 µM [8] [%] | remaining binding at 1 µM [9] [%] | remaining binding at 1 µM [10] [%] | remaining binding at 1 µM [11] [%] | remaining binding at 1 µM [12] [%] |
| --- | --- | --- | --- | --- | --- | --- | --- | --- | --- | --- | --- | --- |
| CNc1nc(Nc2ccc(C(=O)N3CCOCC3)cc2OC)nc2[nH]cc(C#N)c12 [Example 1, 2-((2-methoxy-4-(morpholine-4-carbonyl)phenyl)amino)-4-(methylamino)-7H-pyrrolo[2,3-d]pyrimidine-5-carbonitrile] | 57 | 97 | 15 | 95 | 100 | 4.3 | 72 | 100 | 77 | 74 | 64 | 87 |
| CC1(Nc2nc(Nc3cnn([C@H]4CCN(C5COC5)C[C@@H]4F)c3Cl)nc3[nH]cc(C#N)c23)CC1 [Example 52, 2-((5-chloro-1-((3S,4S)-3-fluoro-1-(oxetane-3-yl)piperidine-4-yl)-1H-pyrazole-4-yl)amino)((1-methylcyclopropyl)amino)-7H-pyrrolo[2,3-d]pyrimidine-5-carbonitrile] | 28 | 42 | 0.25 | 26 | 62 | 0.8 | 1.6 | 19 | 100 | 34 | 6.2 | 52 |
| CCNc1nc(Nc2ccc(C(=O)N3CCC(N4CCOCC4)CC3)cc2OC)nc2[nH]cc(C(F)(F)F)c12 [Example 104, (4-((4-(ethylamino)-5-(trifluoromethyl)-7H-pyrrolo[2,3-d]pyrimidine-2-yl)amino)-3-methoxyphenyl)(4-morpholinopiperidine-1-yl)methanone] | 83 | 100 | 3 | 96 | 96 | 12 | 0.6 | 89 | 100 | 94 | 16 | 100 |
